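Each compound was tested at five concentrations against cells in 96-well plates for 48 hours. Abbreviation: GI50, concentration required for 50% inhibition of growth. TGI: total growth inhibition.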
Columns and labels:
Assay in all cases: NCI tumour cell line growth inhibition, 48 h
NCI/ADR-RES ovarian = system: NCI/ADR-RES ovarian
SK-MEL-5 melanoma = system: SK-MEL-5 melanoma
UACC-257 melanoma = system: UACC-257 melanoma
HCC-2998 colon = system: HCC-2998 colon
MALME-3M melanoma = system: MALME-3M melanoma
ACHN renal = system: ACHN renal
SK-MEL-28 melanoma = system: SK-MEL-28 melanoma
IGROV1 ovarian = system: IGROV1 ovarian
786-0 renal = system: 786-0 renal
BT-549 breast = system: BT-549 breast

O=C1C(Cl)=C(Nc2cccc(O)c2)C(=O)N1Cc1ccc(Cl)cc1Cl
GI50 (NCI/ADR-RES ovarian): 2 µM | TGI (NCI/ADR-RES ovarian): 26.6 µM | GI50 (SK-MEL-5 melanoma): 0.84 µM | TGI (SK-MEL-5 melanoma): 5.64 µM | GI50 (UACC-257 melanoma): 8.76 µM | TGI (UACC-257 melanoma): 21.5 µM | GI50 (HCC-2998 colon): 3.55 µM | TGI (HCC-2998 colon): 16.4 µM | GI50 (MALME-3M melanoma): 1.18 µM | TGI (MALME-3M melanoma): 14.9 µM | GI50 (ACHN renal): 5.59 µM | TGI (ACHN renal): 17.7 µM | GI50 (SK-MEL-28 melanoma): 3.89 µM | TGI (SK-MEL-28 melanoma): 18.3 µM | GI50 (IGROV1 ovarian): 1.17 µM | TGI (IGROV1 ovarian): 13.8 µM | GI50 (786-0 renal): 1.94 µM | TGI (786-0 renal): 18.8 µM

Cc1ccc([C@]2(C)CC[C@H](C)/C2=C\Br)c(O)c1
GI50 (NCI/ADR-RES ovarian): 2.26 µM | TGI (NCI/ADR-RES ovarian): 5.52 µM | GI50 (SK-MEL-5 melanoma): 3.88 µM | TGI (SK-MEL-5 melanoma): 15.5 µM | GI50 (UACC-257 melanoma): 9.22 µM | TGI (UACC-257 melanoma): 22 µM | GI50 (BT-549 breast): 5.4 µM | TGI (BT-549 breast): 19.3 µM | GI50 (MALME-3M melanoma): 3.88 µM | TGI (MALME-3M melanoma): 14.1 µM | GI50 (ACHN renal): 7.5 µM | TGI (ACHN renal): 26.1 µM | GI50 (SK-MEL-28 melanoma): 5.07 µM | TGI (SK-MEL-28 melanoma): 17.6 µM | GI50 (IGROV1 ovarian): 3.07 µM | TGI (IGROV1 ovarian): 12.4 µM | GI50 (786-0 renal): 3.59 µM | TGI (786-0 renal): 13.4 µM

COc1ccc2ccc3oc([N+](=O)[O-])cc3c2c1
GI50 (NCI/ADR-RES ovarian): 0.251 µM | TGI (NCI/ADR-RES ovarian): 2.22 µM | GI50 (SK-MEL-5 melanoma): 0.104 µM | TGI (SK-MEL-5 melanoma): 0.228 µM | GI50 (HCC-2998 colon): 0.171 µM | TGI (HCC-2998 colon): 0.416 µM | GI50 (BT-549 breast): 0.194 µM | TGI (BT-549 breast): 0.606 µM | GI50 (MALME-3M melanoma): 0.187 µM | TGI (MALME-3M melanoma): 0.393 µM | GI50 (ACHN renal): 0.0402 µM | TGI (ACHN renal): 1.44 µM | GI50 (SK-MEL-28 melanoma): 0.202 µM | TGI (SK-MEL-28 melanoma): 0.54 µM | GI50 (IGROV1 ovarian): 0.246 µM | TGI (IGROV1 ovarian): 0.877 µM | GI50 (786-0 renal): 0.316 µM | TGI (786-0 renal): 1.1 µM

O=NN(CCCl)C(=O)NC1CCC(CC2CCC(NC(=O)N(CCCl)N=O)CC2)CC1 (stereo not drawn)
TGI (NCI/ADR-RES ovarian): 77.9 µM | TGI (SK-MEL-5 melanoma): > 100 µM | TGI (UACC-257 melanoma): > 100 µM | TGI (HCC-2998 colon): > 100 µM | TGI (MALME-3M melanoma): > 70.4 µM | TGI (ACHN renal): > 100 µM | TGI (SK-MEL-28 melanoma): > 100 µM | TGI (IGROV1 ovarian): > 67.8 µM | TGI (786-0 renal): 69.9 µM

COc1cc2c3c(n(C)c(=O)c2cc1OC)-c1cc2c(cc1/C3=C\CCNCCCN)OCO2
GI50 (NCI/ADR-RES ovarian): > 100 µM | TGI (NCI/ADR-RES ovarian): > 100 µM | TGI (UACC-257 melanoma): 39.7 µM | GI50 (BT-549 breast): 4.65 µM | TGI (BT-549 breast): 21.1 µM | GI50 (MALME-3M melanoma): 0.863 µM | TGI (MALME-3M melanoma): 4.02 µM | GI50 (ACHN renal): 1.3 µM | TGI (ACHN renal): 6.89 µM | GI50 (SK-MEL-28 melanoma): 2.87 µM | TGI (SK-MEL-28 melanoma): 91.8 µM | GI50 (IGROV1 ovarian): 1.82 µM | TGI (IGROV1 ovarian): > 100 µM | GI50 (786-0 renal): 1.99 µM | TGI (786-0 renal): 12.5 µM

Cc1c(Cl)cccc1NC(=O)c1sc2nc3c(cc2c1N)CCCCC3
GI50 (SK-MEL-5 melanoma): 0.263 µM | TGI (SK-MEL-5 melanoma): 48.6 µM | GI50 (HCC-2998 colon): 1.76 µM | TGI (HCC-2998 colon): > 50 µM | GI50 (BT-549 breast): 0.252 µM | TGI (BT-549 breast): > 50 µM | GI50 (MALME-3M melanoma): 0.357 µM | TGI (MALME-3M melanoma): 37.7 µM | GI50 (ACHN renal): 0.449 µM | TGI (ACHN renal): > 50 µM | GI50 (SK-MEL-28 melanoma): 1.22 µM | TGI (SK-MEL-28 melanoma): > 50 µM | GI50 (IGROV1 ovarian): 0.376 µM | TGI (IGROV1 ovarian): > 50 µM | GI50 (786-0 renal): 0.207 µM | TGI (786-0 renal): 14 µM

Oc1c(CN2CCN(c3ccccc3)CC2)cc(Br)c2cccnc12
TGI (NCI/ADR-RES ovarian): > 100 µM | TGI (UACC-257 melanoma): > 100 µM | TGI (BT-549 breast): > 100 µM | TGI (MALME-3M melanoma): 42.2 µM | TGI (ACHN renal): > 34.4 µM | TGI (SK-MEL-28 melanoma): > 100 µM | TGI (IGROV1 ovarian): > 100 µM | TGI (786-0 renal): 14.5 µM

CN(C)C(=O)Oc1c(-c2ccccc2)c(=O)n2c3ccccc3n3c(=O)n(C)c(=O)c1c23
TGI (SK-MEL-5 melanoma): > 100 µM | TGI (UACC-257 melanoma): > 100 µM | TGI (HCC-2998 colon): > 100 µM | TGI (MALME-3M melanoma): > 100 µM | TGI (ACHN renal): > 100 µM | TGI (SK-MEL-28 melanoma): > 100 µM | TGI (IGROV1 ovarian): > 100 µM | TGI (786-0 renal): > 100 µM

C[C@]12CCC(=O)C=C1CC[C@@H]1C2CC[C@]2(C)c3nn(-c4ccccc4)nc3CC12 (stereo partly drawn)
TGI (SK-MEL-5 melanoma): > 100 µM | TGI (UACC-257 melanoma): > 100 µM | TGI (HCC-2998 colon): > 100 µM | TGI (MALME-3M melanoma): > 100 µM | TGI (ACHN renal): > 100 µM | TGI (SK-MEL-28 melanoma): > 100 µM | TGI (IGROV1 ovarian): > 100 µM | TGI (786-0 renal): > 100 µM

Reference: PubChem BioAssay (NCI)
